The supplement of paper PMC10307832

Columns and labels:
Assay in all cases: relative viability (nuclei count vs DMSO), 5 days (fraction); higher = more cells survive
[1] = compound: C/C(=N\NC(=S)N1CCC1)/C2=CC=CC=N2 + C[C@]1(O)C[C@@H](c2nc(-c3ccc4ccc(-c5ccccc5)nc4c3)c3c(N)nccn32)C1 [Linsitinib] (partner 1 µM)
Summary of the method: (§1)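 Nuclei were stained with Hoechst during a one-step fixation (final 0.05% Triton X-100, 1% formaldehyde, 1 ug/ml Hoechst) carried out 5 days after dosing, then counted on 4× images. The cells, lung cancer lines in 1536-well plates, had been dosed by pin tool the day after seeding with one drug alone or a fixed anchor-drug dose plus five library-drug doses (not always all listed) in √10 steps. Relative viability is the nuclei count in treated wells divided by that in vehicle wells, and each value is the median of duplicate plates.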

[2] = compound: C/C(=N\NC(=S)N1CCC1)/C2=CC=CC=N2 + CC1(C)CCC(c2ccc(Cl)cc2)=C(CN2CCN(c3ccc(C(=O)NS(=O)(=O)c4ccc(N[C@H](CCN5CCOCC5)CSc5ccccc5)c(S(=O)(=O)C(F)(F)F)c4)cc3)CC2)C1 [Navitoclax] (partner 0.5 µM)
Summary of the method: as §1

[3] = compound: C/C(=N\NC(=S)N1CCC1)/C2=CC=CC=N2 + COc1cc2c(Oc3ccc(NC(=O)C4(C(=O)Nc5ccc(F)cc5)CC4)cc3F)ccnc2cc1OCCCN1CCOCC1 [Foretinib] (partner 0.25 µM)
Summary of the method: as §1

[4] = compound: C/C(=N\NC(=S)N1CCC1)/C2=CC=CC=N2 + CCNC(=O)c1noc(-c2cc(C(C)C)c(O)cc2O)c1-c1ccc(CN2CCOCC2)cc1 [Luminespib] (partner 0.01 µM)
Summary of the method: as §1

Cell Line | relative viability ([1]; first compound 0.05 µM) | relative viability ([1]; first compound 0.1581 µM) | relative viability ([1]; first compound 0.5 µM) | relative viability ([1]; first compound 1.581 µM) | relative viability ([1]; first compound 5 µM) | relative viability ([2]; first compound 0.05 µM) | relative viability ([2]; first compound 0.1581 µM) | relative viability ([2]; first compound 0.5 µM) | relative viability ([2]; first compound 1.581 µM) | relative viability ([2]; first compound 5 µM) | relative viability ([3]; first compound 0.05 µM) | relative viability ([3]; first compound 0.1581 µM) | relative viability ([3]; first compound 0.5 µM) | relative viability ([3]; first compound 1.581 µM) | relative viability ([3]; first compound 5 µM) | relative viability ([4]; first compound 0.05 µM) | relative viability ([4]; first compound 0.1581 µM) | relative viability ([4]; first compound 0.5 µM) | relative viability ([4]; first compound 1.581 µM) | relative viability ([4]; first compound 5 µM)
201T | 0.742 | 1 | 0.564 | 0.503 | 0.41 | 0.891 | 1.18 | 0.708 | 0.516 | 0.453 | 0.213 | 0.209 | 0.19 | 0.181 | 0.177 | 0.394 | 0.394 | 0.35 | 0.322 | 0.256
A549 | 0.083 | 0.0782 | 0.0623 | 0.0706 | 0.053 | 0.0538 | 0.0583 | 0.05 | 0.0608 | 0.0344 | 0.0523 | 0.0338 | 0.0289 | 0.0404 | 0.0168 | – | – | – | – | –
A-427 | 0.18 | 0.687 | 0.148 | 0.157 | 0.139 | 0.182 | 0.664 | 0.141 | 0.125 | 0.133 | 0.146 | 0.185 | 0.172 | 0.122 | 0.124 | 0.153 | 0.147 | 0.139 | 0.155 | 0.155
ABC-1 | 0.247 | 0.239 | 0.24 | 0.221 | 0.207 | – | – | – | – | – | 0.13 | 0.243 | 0.197 | 0.207 | 0.208 | 0.224 | 0.264 | 0.291 | 0.145 | 0.316
BEN | 0.168 | 0.171 | 0.167 | 0.174 | 0.189 | 0.0467 | 0.0428 | 0.0598 | 0.115 | 0.114 | 0.17 | 0.204 | 0.175 | 0.171 | 0.205 | 0.113 | 0.19 | 0.0969 | 0.12 | 0.0243
CAL-12T | 0.167 | 0.165 | 0.13 | 0.16 | 0.142 | 0.168 | 0.139 | 0.171 | 0.144 | 0.118 | 0.184 | 0.21 | 0.146 | 0.161 | 0.138 | 0.138 | 0.147 | 0.0989 | 0.105 | 0.112
COR-L23 | 0.129 | 0.11 | 0.106 | 0.0712 | 0.0637 | 0.108 | 0.111 | 0.0885 | 0.077 | 0.0905 | 0.147 | 0.132 | 0.14 | 0.0938 | 0.0923 | 0.102 | 0.0984 | 0.0928 | 0.0829 | 0.0974
COR-L 105 | 0.343 | 0.265 | 0.265 | 0.332 | 0.261 | 0.288 | 0.316 | 0.26 | 0.236 | 0.317 | 0.33 | 0.312 | 0.382 | 0.233 | 0.268 | 0.227 | 0.247 | 0.259 | 0.167 | 0.265
